In assay [1] the test system is SPAG5 mRNA. Kind of assay: SPAG5 mRNA expression change and clinical response during preoperative endocrine therapy (letrozole). The class given is in vivo, human. The source says:
B) Breast Cancer—Assessment of the Clinical Dynamic Response after Receiving Preoperative Endocrine Therapy (Aromatase Inhibitor) (i.e. Example 38)
The association between SPAG5 mRNA expression and clinical response after receiving preoperative therapy has been analysed in a total of 101 patients from a consecutive series of 255 postmenopausal women who presented to Western General Hospital in Edinburgh with large primary histologically confirmed estrogen receptor (ER)-rich (Allred scores 6 to 8) invasive breast cancer and who were recruited between 2003 and 2011 fulfilled the requirements to be included in this. All patients gave informed consent and the study was approved by the local regional ethics committee (2001/8/80 and 2001/8/81). Patients were treated with letrozole (Femara, 2.5 mg; Novartis Pharma AG, Basel, Switzerland) daily for at least 3 months. The clinical response was assessed by three-dimensional ultrasound measurements using dynamic (serial) changes in tumor volumes. Tumours with <50% reduction in volume were classified as non-responders. SPAG5 mRNA expression data were retrieved from the publically available gene expression microarray datasets at the National Center for Biotechnology Information Gene Expression Omnibus under access numbers (GSE59515, GSE55374, and GSE20181).
For “GSE59515” and “GSE55374” cases, RNA was extracted, labelled, and hybridized to HumanHT-12 v4 Illumina BeadChips (GPL10558) according to the standard protocol for NuGEN amplified samples. For GSE20181 cases, samples were processed on Affymetrix U133A gene chip (GPL96). There were no significant differences in clinical or pathologic features of patients or tumours from the three datasets. Illumina and Affymetrix data were independently normalized (quantile using the lumi Bioconductor package2l and the log scale robust multi-array analysis expression measure was implemented with the affy packages) and mapped to Ensembl gene identifiers using re-annotation and mapping for oligonucleotide array technologies and custom chip definition file, respectively, before detection filtering and batch correction with cross-platform normalization. Biopsies were taken from the same subjects at three time-points: pre-treatment, after 10-14 days Letrozol (2.5 mg/day, oral), and after 90 days Letrozol (2.5 mg/day, oral).

For assay [2], the system named is ER+ early stage breast cancer. Description: Distant relapse risk after adjuvant systemic therapy, multicentre adjuvant therapy cohort stratified by SPAG5 mRNA. The class given is in vivo, human. The source says:
A) Breast Cancer—Assessment Death and Distant Relapse Risks after Surgery and Receiving Adjuvant Systemic Therapy if Eligible in Early Stage Breast Cancer (i.e. Examples 26 to 37, 45, 49, 50, 53, 54 and 57)
The inventors evaluated the prognostic utility of SPAG5-mRNA expression in a large combined breast cancer (BC) cohort which was sourced from 15 publically-available, global datasets (n=3538) using the following access numbers.
All the databases had been downloaded and processed. The gene expression data were converted to a common scale (median equal to 0 and standard deviation equal to 1) in order to merge all of the studies data and create combined cohorts. Each sample in the data was standardised to a mean of 0 and standard deviation of 1. Then the data was median centred for each gene whereby median of each gene is 0.
SPAG5 gene expression data of each database were converted to a common scale (median equal to 0 and standard deviation equal to 1) in order to merge all of the studies data that used the same platform and create combined cohorts. To convert to a common scale each sample in the data was standardised to a mean of 0 and standard deviation of 1. Then the data was median centred for each gene whereby median of each gene is 0. Databases using same platform have been merged and the median expression was calculated. The median expression of SPAG5 transcript for each platform has been calculated and values equal to or higher than the median coded as +1 (overexpression). Values of less than the median have been coded 0 or low SPAG5.

The text below walks through data of US20210341482A1, “CANCER BIOMARKERS” (NOTTINGHAM UNIVERSITY HOSPITALS NHS TRUST, priority 2018, published 2021).

As to `N#Cc1ccc(C(c2ccc(C#N)cc2)n2cncn2)cc1` [pre-operative endocrine therapy, letrozole], the “cases with SPAG5 mRNA significantly downregulated vs pre-treatment biopsy” value in assay [1] (ER+ tumours, after 2 weeks) stood at 72%. The “change of SPAG5 mRNA expression vs biopsy after 2 weeks” value in assay [1] (ER+ tumours, after 12 weeks) is reported as “significant further reduction”. Further, in assay [1] (non-responding tumours, after 2 or 12 weeks), the “change of SPAG5 mRNA expression vs pre-treatment biopsy” value was “no significant change”. Moreover, in assay [1] (tumour volume reduced by 50%, after 2 weeks), the “responding tumours with significant down-regulation of SPAG5 mRNA” value worked out at 76%.

Turning to `CC/C(=C(\c1ccccc1)c1ccc(OCCN(C)C)cc1)c1ccccc1` [Tamoxifen], the distant relapse risk stood at 46% in assay [2] (ER+ LN+ early stage BC, SPAG5+ mRNA overexpression); 22% in assay [2] (ER+ LN+ early stage BC, low SPAG5 mRNA); 33% in assay [2] (ER+ LN- early stage BC, SPAG5+ mRNA overexpression); 13% in assay [2] (ER+ LN- early stage BC, low SPAG5 mRNA).
